Row | melting point | SMILES
1 | 101 to 103 °C | CCON=C(CC)C1=C(O)CC(c2ccc3c(c2)N(COC)C(=O)CO3)CC1=O (stereo not given)
2 | 280 °C | Cc1ccc(N2C(=O)C(O)=C(C(=O)c3ccc(C(C)C)cc3)C2c2ccc(Oc3ccccn3)cc2)nn1 (stereo not given)
3 | 236 to 238 °C | Cn1nc(-c2cccc(N3Cc4cc(C(C)(C)C)ccc4C3=O)c2CO)cc(Nc2ccncn2)c1=O
4 | 151 to 153 °C | N#Cc1cccc(-c2c(C(N)=O)c3n(c2Cl)CCNC3)c1
5 | 206 to 207 °C | COc1c(NC(=O)Nc2ccc(-c3ccc(CN4CCOCC4)nc3)c3ccccc23)cc(C(C)(C)C)cc1NS(=O)(=O)c1ccccc1
6 | 186 to 187 °C | CC(C(=O)O)c1ccc2cc(OCc3ccc4ccccc4n3)ccc2c1 (stereo not given)
7 | 85 to 88 °C | COc1ccc2oc(C(=O)c3cc(F)ccc3N3CCOCC3)cc2c1
8 | 105 to 107 °C | Cc1nc(COc2ccc3nc(N)c4nc5n(c4c3c2)C(C)COC5)cs1 (stereo not given)
9 | 174 to 176 °C | CC(C)(C(=O)OCC(=O)c1ccccc1)n1c(=O)[nH]c2cc(F)c(F)cc2c1=O
10 | 150 °C | O=[N+]([O-])c1ccc(-n2ccnc2)cc1
11 | 265 °C | COc1ccc(C(=O)C2=C(O)C(=O)N(c3ccc(C)nn3)C2c2ccc(OC(F)(F)F)cc2)cc1 (stereo not given)
12 | 145 to 147 °C | CCSc1ccc(-c2ccncc2)c2c1C(=O)CC(C)C2 (stereo not given)
13 | 210 to 211 °C | COc1ccc(-c2nccc3c(CC(=O)O)cccc23)cc1
14 | 132 to 134 °C | CCOC(=O)/C(=N/OC)c1ccc(OCCOc2ccc3ccccc3c2)s1
15 | 95 °C | CC(C)c1ccc(C(=O)c2ccc([N+](=O)[O-])cc2)cc1
16 | 132 to 134 °C | CC(C)c1ccc(S(=O)(=O)n2c(COC(C)(C)C(=O)O)cc3cc(C(F)(F)F)ccc32)cc1
17 | 86.5 to 89.5 °C | CCNC(=O)Nc1nc2nc(NCCN(CC)CC)ncc2cc1-c1c(Cl)cccc1Cl
18 | 94 °C | CCOC(=O)COc1ccnc2c(N)cccc12
19 | 105 to 106 °C | COCCn1cc(C(=O)NCc2ccc(Cl)cc2)c(=O)c2cc(CN(C)C[C@@H](O)c3ccccc3)sc21
20 | 96 °C | CCCc1c(O)c(Cl)cc(C(C)=O)c1O
21 | 207 to 208 °C | COc1ccc(Cc2cnc(N)nc2N)cc1OCCNS(=O)(=O)c1ccc(N)cc1
22 | 260 to 262 °C | N#Cc1ccc(-c2cc(-c3ccc(C#N)cc3Cl)on2)cc1
23 | 162 °C | COC(=O)Nc1cc(F)ccc1C(=O)O
24 | 101 to 103 °C | CCCc1c(OCCCCCOc2ccc(Cl)cc2CCC(=O)O)ccc2c1OCCC2=O

Row | melting point | SMILES
25 | 64 to 66 °C | O=Cc1ncc(C(O)C(F)(F)F)s1 (stereo not given)
26 | 145 to 146 °C | OCc1cnc2sc3c(n12)CCCCC3
27 | 150 °C | C=CCC(=O)Nc1n[nH]c2cc(Cl)ccc12
28 | 230 to 250 °C | Cc1c(-c2ccc(Cl)nc2)sc2nc(N)[nH]c(=O)c12
29 | 127 to 128 °C | CCOC(=O)c1c(CSc2ccccc2)n(C)c2cc(Br)c(O)c(CN(C)C)c12
30 | 215 to 217 °C | COC(=O)c1ccc(OC(=O)c2cccc(C(=O)Oc3ccc(C(=O)OC)cc3)c2)cc1
31 | 104 to 105 °C | N#Cc1ccc2c(c1)NCc1ccccc1O2
32 | > 300 °C | CN(C)C=Nc1nc2ncn(C)c(=S)n2n1
33 | 192 to 194 °C | Cc1ncc(C#N)c(Nc2cccc3[nH]ccc23)c1I
34 | 222 to 224 °C | Cc1cccc(-c2c(Cl)ccc3c2C=C(C(=O)O)C(C(F)(F)F)O3)c1 (stereo not given)
35 | 230 to 240 °C | CC1(C)CCC(=O)Nc2cc(Nc3ncc4cc5ccccc5n4n3)ccc21
36 | > 300 °C | O=c1[nH]c2ccc3cccnc3c2o1
37 | 173 to 175 °C | Nc1nc(C(F)(F)F)nc2c1ncn2C1OC(CO)C(O)C1O (stereo not given)
38 | 182 to 184 °C | CC1=CC(C)(C)Nc2ccc(O)cc21
39 | 176 to 178 °C | CC(=O)SCC(Cc1ccccc1)C(=O)Nc1ccc(N2CCCC2)c(C(=O)O)c1 (stereo not given)
40 | 170 °C | CC(C)c1ccc(N(Cc2ccc(N(C)C)cc2)C(=O)C2CC(=O)Nc3ccccc32)cc1 (stereo not given)
41 | 134 to 135 °C | Cc1oc(-c2ccc(F)cc2)cc1COc1cccc(CSC(C)(C)C(=O)O)c1
42 | 178 °C | CS(=O)(=O)N1CN(C(=O)c2c(F)cccc2F)C(=O)N(c2ccc(Cl)cc2)C1
43 | > 280 °C | CC(=O)NC1C2CC(=O)CC1C(N)=C(O)C2=O (stereo not given)
44 | 142 °C | COc1cc(CC(=O)O)n(C)c1C(=O)c1ccc(Cl)cc1
45 | 144 to 148 °C | CCOC(=O)c1c(N2CCN(C)CC2)c2ccccc2n(C)c1=O
46 | 214 to 217 °C | COc1cccc2c1nc(C(F)F)n2-c1nc(N2CCOCC2)nc(N(C)c2cncnc2)n1
47 | 107 °C | Brc1ccc(-c2ccnc(-c3ccccc3)n2)cc1
48 | 174 to 175 °C | CCN(c1ccccc1)c1nc(=O)c2cccnc2s1

Row | melting point | SMILES
49 | 112 °C | COc1c2c(nc3ccccc13)CCNCC2
50 | 187 to 189 °C | CC(C)(C)c1ccc(-c2[nH]c3nccnc3c2CCCO)cc1
51 | 214 to 216 °C | CS(=O)(=O)c1nc2ccccn2c1S(N)(=O)=O
52 | 157 °C | CCOC(=O)c1c(N2CCN(C(=O)c3cccs3)CC2)c2cnccc2n(CC(=O)c2ccccc2)c1=O
53 | 122 °C | O=S(=O)(N[C@H]1CC[C@H](CCN2CCN(c3nccc4c3OCC4)CC2)CC1)c1ccccc1
54 | 83 to 86 °C | CCCCC(O)c1cccc(NC(=O)OCc2ccccc2)c1 (stereo not given)
55 | 42 to 43 °C | C=CCC12CCC(c3ccccc31)c1ccccc12
56 | 155 to 157 °C | c1ccc2c(c1)nc1n2CCCSC1
57 | 130 to 132 °C | CN(C=CC(=Nc1ccccc1)Oc1ccccc1)c1ccccc1
58 | 178 to 180 °C | COc1ccccc1NC(=O)Nc1nc(Oc2ccc3ccccc3c2)nc(N(C)CCC(=O)O)n1
59 | 182 to 183 °C | CC#CC(=O)c1c(-c2ccc(F)cc2)nn2c(Cl)cccc12
60 | 190 to 191 °C | CCC(=O)N(C)c1cccc(-c2ccc3nnc(N)n3n2)c1
61 | 85 to 86 °C | O=C(c1c(F)cccc1F)N1COCN(c2ccc(SC(F)(C(F)(F)F)C(F)(F)F)cc2F)C1=O
62 | 181 to 183 °C | COc1ccc2[nH]c(C(C)C)c(C=O)c2c1
63 | 236 to 237 °C | CNC(=O)Nc1snc(C)c1C(=O)OC
64 | 84 to 85 °C | O=C(O)CCCCCCCCn1nc(-c2ccccc2)c(-c2ccccc2)n1
65 | 133 to 134 °C | c1cnn(-c2cc(-n3cccn3)ncn2)c1
66 | 248 to 250 °C | O=C1NN(C(=O)c2cc3ccccc3[nH]2)C(c2ccccc2)C1c1ccccc1 (stereo not given)
67 | 58 to 59.5 °C | COc1c(CC#N)cccc1CC#N
68 | 94 to 95.5 °C | O=[N+]([O-])c1ccc2c(c1)C=CCCO2
69 | 190 to 191 °C | OC(CCC1CCNCC1)c1cc(C2CCCCC2)nc2ccccc12 (stereo not given)
70 | 117 to 118 °C | Cc1cc(-n2cncn2)c2c(Cl)ccc(C)c2n1
71 | 125 to 126 °C | O=C(CCc1oc(-n2cnc3ccccc32)nc1-c1ccc(Cl)cc1)N1CCSC1
72 | 207 to 210 °C | CCCCc1nc(Cl)c(CC(=O)O)n1Cc1ccc([N+](=O)[O-])cc1

Row | melting point | SMILES
73 | 85 to 87 °C | Cc1nc(COc2ccc(C[C@@H](C)[C@@H](C)Cc3ccc(OCc4csc(C)n4)c(OCc4csc(C)n4)c3)cc2OCc2csc(C)n2)cs1
74 | 256 to 257 °C | CCCc1ccc(-c2nc(C)c(C(C)=NNC(=N)N)s2)cc1
75 | 171 to 172 °C | O=C(O)C1=CC(CF)(CF)Oc2ccc([N+](=O)[O-])cc21
76 | 244 to 248 °C | Cc1c(S(=O)(=O)N(C)C)c(=O)c2ccc(F)cc2n1C
77 | 100 °C | Cc1cc(-n2ccnc2)c2cccc(OCc3c(Cl)ccc(S(=O)(=O)N4CCC[C@H]4C(=O)NCC4CCN(Cc5ccccn5)CC4)c3Cl)c2n1
78 | 32 to 34 °C | Cc1c(N)noc1C(F)(F)C(F)(F)F
79 | 238 to 242 °C | Cc1cn(C2CC(O)C(C#N)(CO)O2)c(=O)[nH]c1=O (stereo not given)
80 | 138 to 139 °C | CC(C)Nc1nc(-c2ccccc2)c(-c2ccc(=O)n(C(C)C)n2)s1
81 | 87 to 89 °C | N#Cc1ccc(-c2ccc(OCCCCCCO)cc2)cc1
82 | 103 °C | Cc1ccc(S(=O)(=O)Oc2ccc(S(=O)(=O)C3=C(C(C)C)OCC3)cc2)cc1
83 | 138 to 140 °C | NC(=O)N(O)Cc1cccc2ccsc12
84 | 216 to 217 °C | CC(=O)NCC1CN(c2ccc(N3CCN(c4nc5ccc([N+](=O)[O-])cc5s4)CC3)c(F)c2)C(=O)O1 (stereo not given)
85 | 205 to 207 °C | Cn1cc(CN2C(=O)C3(COc4cc5c(cc43)OCCO5)c3ccccc32)ccc1=O (stereo not given)
86 | 202 to 204 °C | CCCCOc1cc(C(=O)O)cc(N)c1C(=O)c1ccccc1
87 | 92 to 93 °C | COC(=O)C(=O)NC(=O)N1CCCCC1
88 | 190 to 192 °C | CC(C)c1cccc(C(C)C)c1NC(=O)CNC(c1ccccc1)c1ccc(O)cc1 (stereo not given)
89 | 129 to 131 °C | N#CCCNC(=O)C1=CC(CF)(CF)Oc2ccc(C(F)(F)F)cc21
90 | 100 to 102 °C | CCOC(=O)C(C)OCc1cc2nc(Cl)ccc2n1S(=O)(=O)c1ccc2nc(NC(C)=O)sc2c1 (stereo not given)
91 | 255 to 256 °C | CC(=O)Oc1c(C)cc(C(=O)c2ccc(C(=O)c3cc(C)c(OC(C)=O)c(C)c3)cc2)cc1C
92 | 116 °C | CN1CC(c2ccc(Cl)cc2)C(=O)C(c2cccc(C(F)(F)F)c2)C1 (stereo not given)
93 | 197 to 198 °C | O=[N+]([O-])c1ccc(S(=O)(=O)Nc2ccc(O)cc2)cc1

Row | SMILES | melting point
94 | CCOCCC(=O)C1CCC2C3CCC4CC(O)CCC4(C)C3C(=O)CC12C (stereo not given) | 126 to 130 °C
95 | CCCc1c(C2CCC(c3ccccc3)(N(C)C)CC2)[nH]c2ccccc12 (stereo not given) | 177 to 181 °C
96 | CC(=O)C(=O)Nc1ccc(C#N)c(C(F)(F)F)c1 | 147 to 148 °C
97 | Fc1ccc(C23COC(c4ccc(Cl)cc4)(OC2)OC3)cc1 | 251 to 252 °C
98 | CCC(=O)O[C@H]1C[C@@H](C(=O)OC)[C@]2(C)CC[C@H]3C(=O)O[C@H](c4ccoc4)C[C@]3(C)[C@H]2C1=O | 217 to 221 °C
99 | OC1(CSc2ccc(-c3ccccc3)cc2)CN2CCC1CC2 (stereo not given) | 145 to 147 °C
100 | CC1CCCC(Cl)(Cl)C(=O)N1 (stereo not given) | 132 to 134 °C

Reference: a melting point compilation (Tetko et al.; mined from patent text by program, amines drawn as free bases though some values may be those of a salt)
